Laboratory results: patent publication US11504425B2, “Amphiphilic oligodeoxynucleotide conjugates as adjuvant enhancers” (WAYNE STATE UNIVERSITY, priority 2019, dated 2022)
Entries after “also recorded” stand apart in the source; their conditions may differ. Oligonucleotides are written 5' to 3', each unit as a sugar letter and its base; * is a phosphorothioate linkage, no mark a phosphodiester; rarer units and linkages stand in square brackets, end groups in braces. Plain capitals give the bases only. {Lipid} = lipid portion of the amphiphilic conjugate (lipid variable, as described in specification); d = 2'-deoxy (DNA)

Key:
[1] = system: TLR7-mediated NF-κB activation in Raw-Blue reporter cells; test: Raw-Blue NF-κB/SEAP reporter stimulation with TLR7 ligands; assay type: cell-based, murine; conditions: for IMQ-induced NF-κB activation (SEAP) in the presence of the ODN: 2 μM IMQ + 1 μM ODN, FBS-supplemented medium
Method: (§1) HEK-Blue™-mTLR7, mTLR8, hTLR7, hTLR8, and RAW-Blue™ cells were purchased from InvivoGen and were used to evaluate bioactivities of lipo ODNs and TLR 7/8 ligands in vitro. All these cell lines were cultured with DMEM supplemented with 10% FBS, 1% P/S and 100 μg/mL Normocin at 37° C. with 5% CO2. […] After incubating for 24 h, SEAP levels were quantified by developing supernatants with QuantiBlue™ substrate for 1 h and reading absorption at 620 nm, following manufacturer's instructions.
Following subcutaneous injection, lipid-modified oligonucleotides efficiently accumulated in the draining lymph nodes by binding and trafficking with endogenous albumin protein (Liu et al., Nature 507, 519-522, 2014; Yu et al., Pharmaceutical Res. 35: 56, 2018). Inspired by that prior work, the current study was aimed to take advantage of lipid functionalization in other oligonucleotide-based TLR inhibitors to further expand the pool of lipo suppressive ODNs. The therapeutic efficacy of lipid-modified IRS 954 in suppressing TLR7-mediated immune activation and alleviating the severity of SLE was investigated. Imiquimod (IMQ; FIG. 1A) was first used to stimulate TLR7-mediated immune activation in Raw-Blue reporter cells. For the initial experiments, Raw Blue cells-a murine RAW 264.7 macrophage cell line which expresses secreted embryonic alkaline phosphatase (SEAP) under the control of an NF-κB and AP-1, were used. Raw Blue cells express many toll-like receptors, including TLR-7, TLR-8, and TLR-9. The immunosuppressive capability of unmodified or lipo IRS 954 was determined by quantifying the level of TLR7-induced NF-κB activation.

human TLR7 (hTLR7) = molecular target: T1, human TLR7 (hTLR7) (Homo sapiens, UniProt Q9NYK1); test: HEK hTLR7 reporter cells NF-κB/SEAP; assay type: cell-based; conditions: 2 μM IMQ + 1 μM ODN, 24 h
T1 construct: host or cells: HEK-Blue-hTLR7 (HEK293)
T1 sequence (Q9NYK1 27-1049): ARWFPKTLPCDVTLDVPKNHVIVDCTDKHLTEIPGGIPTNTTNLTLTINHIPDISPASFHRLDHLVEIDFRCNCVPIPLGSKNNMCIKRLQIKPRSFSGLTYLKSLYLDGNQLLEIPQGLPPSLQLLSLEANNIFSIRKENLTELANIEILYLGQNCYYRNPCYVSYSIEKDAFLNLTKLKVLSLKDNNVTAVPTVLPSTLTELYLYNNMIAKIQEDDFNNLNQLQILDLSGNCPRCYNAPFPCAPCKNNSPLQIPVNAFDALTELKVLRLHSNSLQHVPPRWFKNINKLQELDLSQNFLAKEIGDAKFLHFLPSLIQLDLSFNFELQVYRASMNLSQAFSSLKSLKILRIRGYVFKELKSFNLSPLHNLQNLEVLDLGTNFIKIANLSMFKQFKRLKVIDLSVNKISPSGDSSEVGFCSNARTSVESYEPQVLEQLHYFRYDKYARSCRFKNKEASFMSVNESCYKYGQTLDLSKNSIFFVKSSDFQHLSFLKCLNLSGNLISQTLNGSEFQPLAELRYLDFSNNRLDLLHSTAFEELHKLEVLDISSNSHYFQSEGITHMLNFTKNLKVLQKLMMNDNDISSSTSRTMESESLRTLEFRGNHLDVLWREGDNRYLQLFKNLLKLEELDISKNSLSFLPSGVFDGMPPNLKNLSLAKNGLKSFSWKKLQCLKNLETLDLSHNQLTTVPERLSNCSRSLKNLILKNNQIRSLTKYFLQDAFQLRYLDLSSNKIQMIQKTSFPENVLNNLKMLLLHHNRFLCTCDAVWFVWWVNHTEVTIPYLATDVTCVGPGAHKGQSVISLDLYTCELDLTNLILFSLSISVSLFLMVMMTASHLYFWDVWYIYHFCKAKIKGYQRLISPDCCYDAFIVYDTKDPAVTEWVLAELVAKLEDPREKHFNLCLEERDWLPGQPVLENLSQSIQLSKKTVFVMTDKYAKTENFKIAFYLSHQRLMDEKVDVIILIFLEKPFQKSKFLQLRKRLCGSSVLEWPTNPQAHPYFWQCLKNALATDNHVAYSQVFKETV
Method: as §1
(§2) HEK293 cells transfected with human TLR7 or 8 were used. The cells were stimulated with IMQ in the presence of several inhibitory oligonucleotides reported in the literature. […] In contrast, all the unmodified ODNs maintained their inhibitory function, reducing the NF-κB secretion to basal levels (FIG. 8A). We then plotted the IMQ dose response curve in human TLR-7 transfected HEK293 cells.

human TLR8 (hTLR8) = molecular target: T2, human TLR8 (hTLR8) (Homo sapiens, UniProt Q9NR97); test: HEK hTLR8 reporter cells NF-κB/SEAP; assay type: cell-based; conditions: 1 μg/ml or indicated concentrations TLR8-506 + 1 μM ODN, 24 h
T2 construct: host or cells: HEK-Blue-hTLR8 (HEK293)
T2 sequence (Q9NR97 27-1041): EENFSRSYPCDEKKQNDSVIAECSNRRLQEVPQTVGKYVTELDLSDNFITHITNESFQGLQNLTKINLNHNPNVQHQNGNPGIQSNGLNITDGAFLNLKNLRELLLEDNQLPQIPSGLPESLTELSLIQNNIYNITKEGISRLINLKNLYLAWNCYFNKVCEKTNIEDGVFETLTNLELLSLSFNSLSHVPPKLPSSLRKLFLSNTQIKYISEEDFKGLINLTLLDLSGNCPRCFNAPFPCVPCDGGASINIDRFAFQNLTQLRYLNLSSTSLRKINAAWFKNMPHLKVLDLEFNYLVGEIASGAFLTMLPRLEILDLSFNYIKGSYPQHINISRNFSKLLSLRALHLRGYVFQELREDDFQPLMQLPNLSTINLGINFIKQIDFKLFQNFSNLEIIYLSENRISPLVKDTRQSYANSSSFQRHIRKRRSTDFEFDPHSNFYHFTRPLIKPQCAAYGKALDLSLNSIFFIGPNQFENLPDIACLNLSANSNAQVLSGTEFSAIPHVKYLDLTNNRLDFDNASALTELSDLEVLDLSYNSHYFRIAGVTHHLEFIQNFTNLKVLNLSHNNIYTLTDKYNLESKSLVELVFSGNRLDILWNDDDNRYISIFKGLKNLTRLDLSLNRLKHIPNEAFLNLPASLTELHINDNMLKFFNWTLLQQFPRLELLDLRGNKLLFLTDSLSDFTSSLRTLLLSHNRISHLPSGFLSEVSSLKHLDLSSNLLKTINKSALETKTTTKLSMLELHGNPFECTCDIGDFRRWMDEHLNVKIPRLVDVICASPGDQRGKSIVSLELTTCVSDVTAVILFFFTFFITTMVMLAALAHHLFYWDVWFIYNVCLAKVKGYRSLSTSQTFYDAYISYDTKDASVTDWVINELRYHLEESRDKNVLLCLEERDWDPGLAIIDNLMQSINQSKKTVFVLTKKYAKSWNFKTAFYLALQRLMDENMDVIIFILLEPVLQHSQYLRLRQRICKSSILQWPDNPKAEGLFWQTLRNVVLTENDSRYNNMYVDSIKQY
Method: as §1, §2

mouse TLR7 (mTLR7) = molecular target: T3, mouse TLR7 (mTLR7) (Mus musculus, UniProt P58681); test: HEK mTLR7 reporter cells NF-κB/SEAP; assay type: cell-based; conditions: soluble ligand alone, 24 h
T3 construct: host or cells: HEK-Blue-mTLR7 (HEK293)
T3 sequence (P58681 27-1050): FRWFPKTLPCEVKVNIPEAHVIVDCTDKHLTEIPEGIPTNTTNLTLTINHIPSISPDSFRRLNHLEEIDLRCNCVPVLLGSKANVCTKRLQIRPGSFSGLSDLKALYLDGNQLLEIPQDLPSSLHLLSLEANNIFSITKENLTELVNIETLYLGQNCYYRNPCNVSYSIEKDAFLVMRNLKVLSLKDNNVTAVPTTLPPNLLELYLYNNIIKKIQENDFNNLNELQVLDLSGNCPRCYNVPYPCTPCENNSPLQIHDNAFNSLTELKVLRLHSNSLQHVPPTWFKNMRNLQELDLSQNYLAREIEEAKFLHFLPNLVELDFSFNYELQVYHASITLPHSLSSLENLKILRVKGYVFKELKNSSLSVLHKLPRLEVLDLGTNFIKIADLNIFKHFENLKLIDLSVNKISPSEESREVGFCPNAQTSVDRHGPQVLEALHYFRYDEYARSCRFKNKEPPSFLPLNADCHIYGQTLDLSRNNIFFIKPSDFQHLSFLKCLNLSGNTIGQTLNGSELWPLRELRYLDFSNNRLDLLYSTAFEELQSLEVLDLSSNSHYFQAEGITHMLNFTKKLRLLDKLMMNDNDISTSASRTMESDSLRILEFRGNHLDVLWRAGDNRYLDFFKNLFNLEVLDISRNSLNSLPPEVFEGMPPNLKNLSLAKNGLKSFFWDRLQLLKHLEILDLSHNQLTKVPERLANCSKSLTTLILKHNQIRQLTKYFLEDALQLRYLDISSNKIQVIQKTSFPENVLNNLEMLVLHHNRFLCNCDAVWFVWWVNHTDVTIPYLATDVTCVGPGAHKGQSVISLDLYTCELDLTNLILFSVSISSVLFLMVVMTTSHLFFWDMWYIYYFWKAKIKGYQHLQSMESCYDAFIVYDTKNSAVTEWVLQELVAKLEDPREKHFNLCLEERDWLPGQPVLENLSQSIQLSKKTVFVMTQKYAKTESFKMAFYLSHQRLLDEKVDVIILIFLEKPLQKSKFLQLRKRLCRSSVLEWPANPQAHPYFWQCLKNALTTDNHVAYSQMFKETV
Method: as §1
Raw Blue cells which respond to both murine TLR-7 and TLR-8 are also included to assess the overall modulatory effect. half-maximal effective concentration (EC50) and potency of several classic TLR7/8 ligands were evaluated in murine TLR7 and TLR8 reporter cells.

## 5′-L-TGCTCCTGGAGGGGTTGT-3′ (DNA NTGCTCCTGGAGGGGTTGT; 5' lipid modification; Lipid-modified synthetic oligonucleotide; (1)..(1) n=placeholder indicative of lipid portion of conjugate, as described in specification; lipid is variable, depending on embodiment(s)) [lipo IRS 954]
[1]; 24 h
  IMQ-induced NF-κB activation (SEAP) in the presence of the ODN: enhanced TLR7-mediated activation; also recorded: more than twofold increase in TLR-7-mediated activation
[1]; without IMQ
  activity of the ODN alone in Raw Blue cells: no activity
Human TLR7 (hTLR7)
  IMQ-mediated NF-κB stimulation in hTLR7 cells in the presence of the ODN: markedly enhanced IMQ-mediated NF-κB stimulation
Human TLR8 (hTLR8)
  TLR8-506 stimulation of hTLR8 cells in the presence of the ODN: partially inhibited the TLR-8 signaling

## 5′-TGCTCCTGGAGGGGTTGT-3′ (DNA dT*dG*dC*dT*dC*dC*dT*dG*dG*dA*dG*dG*dG*dG*dT*dT*dG*dT) [IRS 954]
[1]; 24 h
  IMQ-induced NF-κB activation (SEAP) in the presence of the ODN: no detectable NF-κB was observed

## CC(C)Cn1cnc2c(N)nc3ccccc3c21 [IMQ, imiquimod]
[1]; ligand alone, 24 h
  NF-κB activation of Raw Blue cells by the ligand alone: resulted in secretion of NF-κB
Mouse TLR7 (mTLR7)
  mTLR7 activation by the ligand alone: activated mTLR-7 at different concentrations

## lipo ODN 2087: lipid modified ODN 2087 (5′-TCCTGAGCTTGAAGT-3′) (DNA {Lipid}-dT*dC*dC*dT*dG*dA*dG*dC*dT*dT*dG*dA*dA*dG*dT)
Human TLR7 (hTLR7)
  IMQ-mediated NF-κB stimulation in hTLR7 cells in the presence of the ODN: markedly enhanced IMQ-mediated NF-κB stimulation
Human TLR8 (hTLR8)
  TLR8-506 stimulation of hTLR8 cells in the presence of the ODN: partially inhibited the TLR-8 signaling
